ChEMBL document CHEMBL1201862, “PubChem BioAssay data set” (2004)
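Cells were grown in 96-well plates and exposed to each compound for 48 hours at five concentrations; endpoints were interpolated linearly between bracketing concentrations, or set to the highest concentration if not reached. At the GI50, growth is halved.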 Activity calls are given as the source filed them. Rule as the data show it: active = GI50 up to about 1.1 µM and inactive = higher.

Assays:
Test in all cases: inhibition of tumour cell growth, NCI panel, 48 h
A498 = test system: A498
CCRF-CEM = test system: CCRF-CEM
COLO 205 = test system: COLO 205
HCT-15 = test system: HCT-15
HL-60 = test system: HL-60
HOP-92 = test system: HOP-92
KM12 = test system: KM12
M14 = test system: M14
Malme-3M = test system: Malme-3M
SF-268 = test system: SF-268
SF-539 = test system: SF-539
SK-MEL-28 = test system: SK-MEL-28
SK-MEL-5 = test system: SK-MEL-5
SK-OV-3 = test system: SK-OV-3
SN12C = test system: SN12C
TK-10 = test system: TK-10
U-251 = test system: U-251
UACC-257 = test system: UACC-257
PC-3 = test system: PC-3

| SMILES | GI50 (A498) | GI50 (CCRF-CEM) | GI50 (COLO 205) | GI50 (HCT-15) | GI50 (HL-60) | GI50 (HOP-92) | GI50 (KM12) | GI50 (M14) | GI50 (Malme-3M) | GI50 (SF-268) | GI50 (SF-539) | GI50 (SK-MEL-28) | GI50 (SK-MEL-5) | GI50 (SK-OV-3) | GI50 (SN12C) | GI50 (TK-10) | GI50 (U-251) | GI50 (UACC-257) | GI50 (PC-3) |
| --- | --- | --- | --- | --- | --- | --- | --- | --- | --- | --- | --- | --- | --- | --- | --- | --- | --- | --- | --- |
| Cn1cnc(CCc2ccccc2)n1 | > 100 µM (inactive) | > 100 µM (inactive) | > 100 µM (inactive) | > 100 µM | > 100 µM (inactive) | > 100 µM (inactive) | > 100 µM (inactive) | > 100 µM (inactive) | > 100 µM (inactive) | > 100 µM (inactive) | > 100 µM (inactive) | > 100 µM (inactive) | > 100 µM (inactive) | > 100 µM (inactive) | > 100 µM (inactive) | > 100 µM (inactive) | > 100 µM (inactive) | > 100 µM (inactive) |  |
| CC(=O)NNc1nc(C)c(C(=O)NNC(=O)C(=O)Nc2c(Cl)cc([N+](=O)[O-])cc2Cl)s1 | 21.6 µM (inactive) | 31.8 µM (inactive) | 36.3 µM (inactive) | 40.4 µM | 28.2 µM (inactive) | 19.5 µM (inactive) | 40 µM (inactive) | 52.1 µM (inactive) | 36.1 µM (inactive) | 29.7 µM (inactive) | 24.2 µM (inactive) | 26.4 µM (inactive) | 40 µM (inactive) | 48.5 µM (inactive) | 42.7 µM (inactive) | 41.4 µM (inactive) | > 100 µM (inactive) | 26.6 µM (inactive) |  |
| C=C1C(=O)O[C@H]2C1C[C@@H](O)[C@@]1(C)OC1CC[C@@]1(C)O[C@H]21 (stereo partly specified) |  | 5.15 µM (inactive) | 11.6 µM (inactive) | 14.9 µM |  | 17.2 µM (inactive) | 20.6 µM (inactive) | 16.3 µM (inactive) | 11.7 µM (inactive) | 48.1 µM (inactive) |  | 21.1 µM (inactive) | 16.1 µM (inactive) | > 100 µM (inactive) | 20.1 µM (inactive) | 17.8 µM (inactive) | > 100 µM (inactive) | 19.5 µM (inactive) | 27.2 µM (inactive) |
| c1ccc2c(c1)nc1n2sc2nc3ccccc3n21 |  | > 100 µM (inactive) | > 100 µM (inactive) | > 100 µM | > 100 µM (inactive) | > 100 µM (inactive) | > 100 µM (inactive) | > 100 µM (inactive) |  | > 100 µM (inactive) | > 100 µM (inactive) | > 100 µM (inactive) | > 100 µM (inactive) | > 100 µM (inactive) | > 100 µM (inactive) | > 100 µM (inactive) | > 100 µM (inactive) | > 100 µM (inactive) | > 100 µM (inactive) |
| C[C@H](c1ccccc1)N1C(=O)[C@@H](OCc2ccccc2)[C@H]1[C@H](COC(=O)COCc1ccccc1)OCc1ccccc1 | > 100 µM (inactive) | > 100 µM (inactive) | > 100 µM (inactive) | > 100 µM |  | > 100 µM (inactive) | > 100 µM (inactive) | > 100 µM (inactive) | 11.6 µM (inactive) | > 100 µM (inactive) |  | > 100 µM (inactive) | 58.7 µM (inactive) | > 100 µM (inactive) | > 100 µM (inactive) | > 100 µM (inactive) | > 100 µM (inactive) |  | 77.4 µM (inactive) |
| CCOP(=O)(OCC)C1CC(O)C(=O)N1 (stereo unspecified) | > 100 µM (inactive) | > 100 µM (inactive) | > 100 µM (inactive) | > 100 µM |  |  | > 100 µM (inactive) | > 100 µM (inactive) | > 100 µM (inactive) | > 100 µM (inactive) |  | > 100 µM (inactive) | > 100 µM (inactive) | > 100 µM (inactive) | > 100 µM (inactive) | > 100 µM (inactive) | > 100 µM (inactive) | > 100 µM (inactive) | > 100 µM (inactive) |
| COc1nc(NC2OC(COC(C)=O)C(OC(C)=O)C(OC(C)=O)C2OC(C)=O)c(/N=C/C=N/c2c(NC3OC(COC(C)=O)C(OC(C)=O)C(OC(C)=O)C3OC(C)=O)nc(OC)[nH]c2=O)c(=O)[nH]1 (stereo unspecified) | > 100 µM (inactive) | > 100 µM (inactive) | > 100 µM (inactive) |  | > 100 µM (inactive) | > 100 µM (inactive) | > 100 µM (inactive) | > 100 µM (inactive) | > 100 µM (inactive) | > 100 µM (inactive) | > 100 µM (inactive) | > 100 µM (inactive) | > 100 µM (inactive) | > 100 µM (inactive) | > 100 µM (inactive) | > 100 µM (inactive) | > 100 µM (inactive) | > 100 µM (inactive) |  |
| Cc1c(-c2cc(-c3ccccc3)n[nH]c2=O)c2ccccc2n1C | > 100 µM (inactive) | > 100 µM (inactive) | > 100 µM (inactive) | > 100 µM | > 100 µM (inactive) | > 100 µM (inactive) | > 100 µM (inactive) | > 100 µM (inactive) | > 100 µM (inactive) | > 100 µM (inactive) | > 100 µM (inactive) | > 100 µM (inactive) | > 100 µM (inactive) | > 100 µM (inactive) | > 100 µM (inactive) | > 100 µM (inactive) | > 100 µM (inactive) | > 100 µM (inactive) |  |
